Assay type in all cases: cell-based
In one assay the test system is Alternaria solani. As to the kind of experiment: Microtest: activity against early blight caused by Alternaria solani (Alteso).
The subject of a further assay is Phytophthora infestans. As to the kind of experiment: microbe, parasite or virus in culture. The note with it: for Observed efficacy: solo product.
In the next assay the test system is Septoria tritici. As to the kind of experiment: Microtest: activity against leaf blotch on wheat caused by Septoria tritici (Septtr). The note with it: solo product.
For another assay, the system named is Leptosphaeria nodorum. As to the kind of experiment: Microtest: activity against wheat leaf spots caused by Leptosphaeria nodorum (Leptno).
The subject of another assay is Botrytis cinerea. Description: Microtest: activity against the grey mold Botrytis cinerea (Botrci).
For another assay, the system named is Pyricularia oryzae. As to the kind of experiment: microbe, parasite or virus in culture. The note with it: for Observed efficacy: solo product.
The mark [1] stands for this setting: second Septtr microtest, 0.016 ppm.
Where [2] appears, read: Phytophthora infestans, 168 h, read-out: Observed efficacy.
Where [3] appears, read: Pyricularia oryzae, 168 h, read-out: Observed efficacy.
The mark [4] stands for this setting: second Septtr microtest, 16 ppm.
Setting [5] is: second Septtr microtest, 63 ppm.

As for `CC1COC(Cn2cncn2)(c2ccc(Oc3ccc(Cl)cc3)cc2Cl)O1` (centres unmarked) [Difenoconazol], the Observed efficacy was 5 with Alternaria solani (solo 0.004 ppm); 5 in the assay with Alternaria solani (solo 0.016 ppm); 30 in the assay on Phytophthora infestans (4 ppm); 26% in the assay on Septoria tritici (setting [1]); 29 in the assay with Leptosphaeria nodorum (solo 0.016 ppm).
Regarding `Fc1ccc([C@]2(Cn3cncn3)O[C@H]2c2ccccc2Cl)cc1` [Epoxiconazol], the Observed efficacy in the assay with Alternaria solani (solo 0.004 ppm) is 5; in the assay on Alternaria solani (solo 0.016 ppm), 8; in the assay with Phytophthora infestans (4 ppm), 27; in the assay with Septoria tritici (setting [1]), 16%; in the assay with Botrytis cinerea (solo 0.016 ppm), 11.
In the case of `O=c1c2cc(F)ccc2nc(-n2cncn2)n1-c1ccc(Cl)cc1Cl` [Fluquinconazol], the figures for the Observed efficacy in the assay on Phytophthora infestans (4 ppm), with Pyricularia oryzae (1 ppm) and in the assay on Septoria tritici (0.004 ppm) were 0%, 1% and 0%, respectively.
For the compound `CC(O)(Cn1cncn1)c1ccc(Oc2ccc(Cl)cc2)cc1C(F)(F)F` (centres unmarked) [I-3, 2-[4-(4-chlorophenoxy)-2-(trifluoromethyl)phenyl]-1-(1,2,4-triazol-1-yl)propan-2-ol], the inhibition of growth at 4e-06 ppm with Alternaria solani (Alternaria solani, 168 h, solo 0.000004 ppm, read-out: Observed efficacy) came to 5%; with Septoria tritici (Zymoseptoria tritici, 168 h, second Septtr microtest, 0.000004 ppm, read-out: Observed efficacy), 14%; in the assay on Botrytis cinerea (Botrytis cinerea, 168 h, solo 0.000004 ppm, read-out: Observed efficacy), 0%. Also, the inhibition of growth at 6.3e-05 ppm in the assay with Alternaria solani (Alternaria solani, 168 h, solo 0.000063 ppm, read-out: Observed efficacy) came to 8%; with Leptosphaeria nodorum (Parastagonospora nodorum, 168 h, solo product, 0.000063 ppm, read-out: Observed efficacy) it was 26%; in the assay on Botrytis cinerea (Botrytis cinerea, 168 h, solo 0.000063 ppm, read-out: Observed efficacy), 0%. The Observed efficacy with Alternaria solani (solo product, 0.000016 ppm) came out at 0%; in the assay with Septoria tritici (0.000016 ppm) it was 16; in the assay with Septoria tritici (0.004 ppm) it was 54. Moreover, the inhibition of growth at 4 ppm with Phytophthora infestans (setting [2]) worked out at 4%. Moreover, in the assay on Phytophthora infestans (setting [2]), the inhibition of growth at 16 ppm was 4%. The inhibition of growth at 0.004 ppm in the assay on Pyricularia oryzae (setting [3]) was 0%. Besides, the inhibition of growth at 1 ppm in the assay on Pyricularia oryzae (setting [3]) turned out to be 37%. Besides, in the assay on Septoria tritici (Zymoseptoria tritici, 168 h, second Septtr microtest, 0.00000025 ppm, read-out: Observed efficacy), the inhibition of growth at 2.5e-07 ppm was 8%. Besides, the inhibition of growth at 1e-06 ppm in the assay on Septoria tritici (Zymoseptoria tritici, 168 h, second Septtr microtest, 0.000001 ppm, read-out: Observed efficacy) was determined as 5%. Besides, the inhibition of growth at 1.6e-05 ppm in the assay on Septoria tritici (Zymoseptoria tritici, 168 h, second Septtr microtest, 0.000016 ppm, read-out: Observed efficacy) came to 16%; in the assay on Botrytis cinerea (Botrytis cinerea, 168 h, solo 0.000016 ppm, read-out: Observed efficacy) it was 5%. The inhibition of growth at […] in the assay with Botrytis cinerea (Botrytis cinerea, 168 h, solo 0.063 ppm, read-out: Observed efficacy) stood at 23%.
Regarding `CCCCCCCCc1c(CC)nc2ncnn2c1N` [II-1, ametoctradin, reference compound], the Observed efficacy with Alternaria solani (solo 4 ppm) turned out to be 5; in the assay with Alternaria solani (solo 16 ppm), 2; with Alternaria solani (solo 63 ppm) it was 6; in the assay with Botrytis cinerea (solo 16 ppm), 3; in the assay on Botrytis cinerea (solo 63 ppm), 4.
In the case of `CO/C=C(/C(=O)OC)c1ccccc1Oc1cc(Oc2ccccc2C#N)ncn1` [II-3, azoxystrobin, reference compound], the Observed efficacy was determined as 6 with Alternaria solani (solo 0.004 ppm), 14 with Alternaria solani (solo 0.016 ppm), 14 in the assay with Botrytis cinerea (solo 4 ppm) and 23 in the assay with Botrytis cinerea (solo 16 ppm).
Turning to `CCOC(=O)C1CC(=O)C(=C(O)C2CC2)C(=O)C1` (centres unmarked) [II-3a, trinexapac-ethyl, reference compound], the Observed efficacy in the assay with Alternaria solani (solo 4 ppm) was 12; in the assay with Alternaria solani (solo 16 ppm) it was 27; in the assay on Septoria tritici (second Septtr microtest, 4 ppm), 13%. In addition, the inhibition of growth at 63 ppm in the assay with Leptosphaeria nodorum (Parastagonospora nodorum, 168 h, solo 63 ppm, read-out: Observed efficacy) was found to be 17%.
As to `Cn1cc(C(=O)Nc2ccc(F)cc2-c2ccc(Cl)c(Cl)c2)c(C(F)F)n1` [II-6, bixafen, reference compound], the Observed efficacy with Alternaria solani (solo 0.001 ppm) is given as 5; with Alternaria solani (solo 0.004 ppm), 38; in the assay with Phytophthora infestans (1 ppm) it was 25; in the assay with Botrytis cinerea (solo 0.016 ppm), 8.
For `O=C(Nc1ccccc1-c1ccc(Cl)cc1)c1cccnc1Cl` [II-7, boscalid, reference compound], the Observed efficacy is reported as 5 in the assay on Alternaria solani (solo 0.001 ppm), 6 with Alternaria solani (solo 0.004 ppm) and 23 in the assay with Leptosphaeria nodorum (solo 4 ppm).
As to `COC(=O)Nc1nc2ccccc2[nH]1` [II-8, carbendazim, reference compound], the Observed efficacy in the assay on Alternaria solani (solo 4 ppm) was 7; with Alternaria solani (solo 16 ppm), 10; with Alternaria solani (solo 63 ppm) it was 34; with Septoria tritici (setting [4]), 16%. In addition, the inhibition of growth at 4 ppm in the assay with Phytophthora infestans (setting [2]) came to 24%.
For the compound `N#Cc1c(Cl)c(Cl)c(Cl)c(C#N)c1Cl` [II-11, chlorothalonil, reference compound], in the assay with Leptosphaeria nodorum (solo 1 ppm), the Observed efficacy is 28.
Turning to `Cc1ccc(-c2c(Cl)nc(C#N)n2S(=O)(=O)N(C)C)cc1` [II-12, cyazofamid, reference compound], the Observed efficacy in the assay on Alternaria solani (solo 4 ppm) is reported as 14; in the assay on Alternaria solani (solo 16 ppm), 35; with Septoria tritici (setting [4]) it was 40%.
Take `N#Cc1nn(-c2c(Cl)cc(C(F)(F)F)cc2Cl)c(N)c1[S+]([O-])C(F)(F)F` (centres unmarked) [II-20c, fipronil, reference compound]: the Observed efficacy turned out to be 6 in the assay with Alternaria solani (solo 1 ppm) and 2 with Alternaria solani (solo 4 ppm).
On to `N#Cc1c[nH]cc1-c1cccc2c1OC(F)(F)O2` [II-34, fludioxonil, reference compound], for which the Observed efficacy turned out to be 13% with Alternaria solani (solo product, 0.016 ppm) and 0% with Phytophthora infestans (1 ppm).
Consider `CO/N=C(/C1=NOCCO1)c1ccccc1Oc1ncnc(Oc2ccccc2Cl)c1F` [II-37, fluoxastrobin, reference compound], for which the Observed efficacy with Alternaria solani (solo 0.016 ppm) was found to be 11.
For the compound `Cn1cc(C(=O)Nc2ccccc2-c2cc(F)c(F)c(F)c2)c(C(F)F)n1` [II-42, fluxapyroxad, reference compound], the Observed efficacy with Alternaria solani (solo 0.001 ppm) turned out to be 4; with Alternaria solani (solo product, 0.001 ppm), 4%.
As for `CC(C)C1C2CCC1c1c(NC(=O)c3cn(C)nc3C(F)F)cccc12` (centres unmarked) [II-50, isopyrazam, reference compound], the Observed efficacy is on record as 15 in the assay with Alternaria solani (solo 0.016 ppm) and 6 with Botrytis cinerea (solo 0.016 ppm).
As to `Cc1ccc(C(C)NC(=O)[C@@H](NC(=O)OC(C)C)C(C)C)cc1` (some centres unmarked) [II-51, iprovalicarb, reference compound], the Observed efficacy is reported as 1 with Alternaria solani (solo 4 ppm); 2 in the assay with Alternaria solani (solo 16 ppm); 1 with Alternaria solani (solo 63 ppm); 19 in the assay on Leptosphaeria nodorum (solo 16 ppm); 2 with Botrytis cinerea (solo 4 ppm); 3 with Botrytis cinerea (solo 16 ppm). The same compound registered an Observed efficacy in the assay on Botrytis cinerea (solo 63 ppm) of 6.
Take `COC(=O)N(OC)c1ccccc1COc1ccn(-c2ccc(Cl)cc2)n1` [II-66, pyraclostrobin, reference compound]: the inhibition of growth at 0.016 ppm with Alternaria solani (Alternaria solani, 168 h, solo 0.016 ppm, read-out: Observed efficacy) worked out at 18%; with Leptosphaeria nodorum (Parastagonospora nodorum, 168 h, solo 0.016 ppm, read-out: Observed efficacy) it was 24%. The Observed efficacy with Alternaria solani (solo 0.004 ppm) was 8; with Septoria tritici (second Septtr microtest, 0.004 ppm), 37%; with Septoria tritici (0.001 ppm), 12; in the assay on Septoria tritici (0.004 ppm) it was 37. Moreover, in the assay on Pyricularia oryzae (setting [3]), the inhibition of growth at 0.001 ppm worked out at 5%.
As for `CON=C(C(=O)OC)c1ccccc1CON=C(C)c1cccc(C(F)(F)F)c1` [II-92, trifloxystrobin, reference compound], the Observed efficacy in the assay on Alternaria solani (solo 0.004 ppm) amounted to 7; with Alternaria solani (solo 0.016 ppm), 11. The inhibition of growth at 1 ppm in the assay with Phytophthora infestans (setting [2]) was 37%.
As for `C[N+]1(C)CCCCC1.[Cl-]` [Mepiquat-cl], the Observed efficacy was found to be 10 in the assay on Alternaria solani (solo 16 ppm); 16 in the assay on Alternaria solani (solo 63 ppm); 16% in the assay on Septoria tritici (setting [5]); 28 in the assay with Leptosphaeria nodorum (solo 63 ppm); 11 with Botrytis cinerea (solo 16 ppm).
As to `CC1(C)CCC(Cc2ccc(Cl)cc2)C1(O)Cn1cncn1` (centres unmarked) [Metconazol], the Observed efficacy was determined as 17 in the assay on Alternaria solani (solo 0.016 ppm) and 24% with Septoria tritici (setting [1]).
Take `CCN(Cc1ccc(Cl)nc1)/C(=C/[N+](=O)[O-])NC` [Nitenpyram]: the Observed efficacy in the assay with Alternaria solani (solo 4 ppm) amounted to 2; in the assay on Alternaria solani (solo 16 ppm), 2; in the assay with Alternaria solani (solo 63 ppm) it was 8; with Septoria tritici (setting [5]), 10%; in the assay with Leptosphaeria nodorum (solo 63 ppm) it was 23.
Consider `CCC(=O)C1=C([O-])CC(C(=O)[O-])CC1=O.[Ca+2]` (centres unmarked) [Prohexadion-Ca], for which the Observed efficacy in the assay with Alternaria solani (solo 4 ppm) is 6; with Alternaria solani (solo 16 ppm) it was 2; in the assay on Alternaria solani (solo 63 ppm) it was 2; in the assay on Septoria tritici (setting [5]), 15%; with Leptosphaeria nodorum (solo 63 ppm) it was 23; in the assay on Botrytis cinerea (solo 4 ppm) it was 10. Further, the Observed efficacy in the assay with Botrytis cinerea (solo 16 ppm) turned out to be 5; in the assay with Botrytis cinerea (solo 63 ppm), 4.
For the compound `OC(Cc1ccccc1Cl)(Cn1nc[nH]c1=S)C1(Cl)CC1` (centres unmarked) [Prothioconazol], the Observed efficacy in the assay on Alternaria solani (solo 1 ppm) is given as 66; with Septoria tritici (setting [1]) it was 17%; in the assay on Leptosphaeria nodorum (solo 1 ppm), 43; in the assay with Botrytis cinerea (solo 1 ppm), 36; in the assay with Botrytis cinerea (solo 4 ppm), 72.
With `CC(C)(C)C(O)(CCc1ccc(Cl)cc1)Cn1cncn1` (centres unmarked) [Tebuconazol], the Observed efficacy in the assay on Alternaria solani (solo 0.016 ppm) came to 8; in the assay on Phytophthora infestans (1 ppm), 25; in the assay on Botrytis cinerea (solo 0.016 ppm), 9.
On to `CN1COCN(Cc2cnc(Cl)s2)/C1=N\[N+](=O)[O-]` [Thiamethoxam], for which the Observed efficacy came to 10 in the assay with Alternaria solani (solo 1 ppm); 51 with Alternaria solani (solo 4 ppm); 57% in the assay with Septoria tritici (second Septtr microtest, 1 ppm); 22 with Leptosphaeria nodorum (solo 1 ppm); 51 with Leptosphaeria nodorum (solo 4 ppm).
For `CC1(C)CC/C(=C\c2ccc(Cl)cc2)C1(O)Cn1cncn1` (centres unmarked) [Triticonazol], the Observed efficacy worked out at 0% with Phytophthora infestans (16 ppm), 1% in the assay on Pyricularia oryzae (1 ppm) and 59% with Pyricularia oryzae (4 ppm).

For the origin of these results see patent US10759767B2 (priority 2012, dated 2020).
